US20120178758A1, “STYRYL-TRIAZINE DERIVATIVES AND THEIR THERAPEUTICAL APPLICATIONS” (CALIFORNIA CAPITAL EQUITY, LLC, priority 2009, published 2012)

Columns and labels:
Assay type in all cases: biochemical
[1] = biological target: T1, c-Src kinase (Homo sapiens, UniProt P12931); experiment: c-Src kinase assay (KinaseProfiler / Kinase Hotspot); conditions: compound at 1 μM; read-out: % Inhibition @1 μM cSrc
T1 construct: purchased Millipore (KinaseProfiler Service) / Reaction Biology Corp. (Kinase Hotspot)
T1 sequence (P12931 whole entry): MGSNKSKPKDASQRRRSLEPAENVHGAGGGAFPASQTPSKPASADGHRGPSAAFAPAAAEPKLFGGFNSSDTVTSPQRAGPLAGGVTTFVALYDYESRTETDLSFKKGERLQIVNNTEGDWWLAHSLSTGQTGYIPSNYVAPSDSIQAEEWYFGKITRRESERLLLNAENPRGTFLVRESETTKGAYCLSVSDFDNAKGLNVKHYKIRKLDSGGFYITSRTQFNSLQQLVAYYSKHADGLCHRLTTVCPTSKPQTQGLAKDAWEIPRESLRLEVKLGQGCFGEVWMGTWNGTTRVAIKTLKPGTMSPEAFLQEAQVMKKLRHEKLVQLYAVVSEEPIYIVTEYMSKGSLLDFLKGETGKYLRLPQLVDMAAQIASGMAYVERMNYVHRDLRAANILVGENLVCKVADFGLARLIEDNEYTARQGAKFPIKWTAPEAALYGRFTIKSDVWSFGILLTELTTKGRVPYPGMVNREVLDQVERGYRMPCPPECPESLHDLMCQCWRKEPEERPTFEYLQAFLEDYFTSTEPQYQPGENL
Experimental: (§1) This example illustrated c-Src kinase, Aurora-A kinase, Flt3 kinase, Ret kinase and TrkA Kinase Assays of selected Compounds from this invention (referred to Daniele Fancelli et al, J. Med. Chem., 2006, 49 (24), pp 7247-7251). The KinaseProfiler™ Service Assay Protocols (Millipore) were used to test the kinase inhibiting activity of novel compounds from this invention. To do this, the buffer composition was as: 20 mM MOPS, 1 mM EDTA, 0.01% Brij-35, 5% Glycerol, 0.1% […], 1 mg/mL BSA. Test compounds were initially dissolved in DMSO at the desired concentration, then serially diluted to the kinase assay buffer. In a final reaction volume of 25 μL, Aurora-A(h) (5-10 mU) is incubated with 8 mM MOPS pH 7.0, 0.2 mM EDTA, 200 μM LRRASLG (Kemptide), 10 mM MgAcetate and [γ^33P-ATP]. The reaction was initiated by the addition of the MgATP mix. After incubation for 40 minute at room temperature, the reaction was stopped by addition of 5 μL of a 3% phosphoric acid solution. 10 μL of the reaction was then spotted onto a P30 filtermat and washed three times for 5 minutes in 50 mM phosphoric acid and once in methanol prior to drying and scintillation counting. Wells containing substrate but no kinase and wells containing a phosphopeptide control were used to set 0% and 100% phosphorylation value, repectively.
(§2) Also Kinase Hotspot™ kinase assay was used to test the compounds for IC50 or % inhibitions (Reaction Biology Corp.). Inhibitor IC50 values were determined by titration of compound at the optimal kinase concentration (Kinase EC50).

[2] = biological target: T2, Flt3 kinase (Homo sapiens, UniProt P36888); experiment: Flt3 kinase assay (KinaseProfiler / Kinase Hotspot); conditions: compound at 1 μM
T2 construct: purchased Millipore (KinaseProfiler Service) / Reaction Biology Corp. (Kinase Hotspot)
T2 sequence (P36888 27-993): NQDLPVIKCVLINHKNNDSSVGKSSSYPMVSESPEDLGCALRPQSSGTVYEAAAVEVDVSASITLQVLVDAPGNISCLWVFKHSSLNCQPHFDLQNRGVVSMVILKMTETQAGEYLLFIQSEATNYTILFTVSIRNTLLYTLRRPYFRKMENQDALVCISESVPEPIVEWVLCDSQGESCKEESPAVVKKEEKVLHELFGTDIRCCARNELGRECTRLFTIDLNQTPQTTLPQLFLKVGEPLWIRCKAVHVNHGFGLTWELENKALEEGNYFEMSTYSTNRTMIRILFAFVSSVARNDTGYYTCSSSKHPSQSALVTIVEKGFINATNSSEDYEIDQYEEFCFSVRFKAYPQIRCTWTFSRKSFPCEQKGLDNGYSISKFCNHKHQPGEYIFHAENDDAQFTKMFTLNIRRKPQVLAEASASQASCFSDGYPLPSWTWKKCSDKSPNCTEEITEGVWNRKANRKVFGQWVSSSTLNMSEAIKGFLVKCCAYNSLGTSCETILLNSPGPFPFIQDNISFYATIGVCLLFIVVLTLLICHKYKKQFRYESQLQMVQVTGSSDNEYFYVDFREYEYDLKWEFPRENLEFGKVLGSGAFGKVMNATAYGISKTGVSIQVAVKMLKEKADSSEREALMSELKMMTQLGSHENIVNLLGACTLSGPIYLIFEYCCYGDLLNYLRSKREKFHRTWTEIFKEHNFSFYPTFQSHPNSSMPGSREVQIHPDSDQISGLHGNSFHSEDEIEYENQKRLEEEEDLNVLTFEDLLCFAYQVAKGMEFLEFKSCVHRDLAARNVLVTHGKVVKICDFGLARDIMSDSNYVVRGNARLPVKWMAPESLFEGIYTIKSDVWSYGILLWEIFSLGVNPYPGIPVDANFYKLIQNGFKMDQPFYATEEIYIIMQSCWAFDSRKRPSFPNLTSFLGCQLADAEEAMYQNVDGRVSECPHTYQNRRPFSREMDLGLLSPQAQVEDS
Experimental: as §1, §2

[3] = biological target: T3, Ret kinase (Homo sapiens, UniProt P07949); experiment: Ret kinase assay (KinaseProfiler / Kinase Hotspot); conditions: compound at 1 μM
T3 construct: purchased Millipore (KinaseProfiler Service) / Reaction Biology Corp. (Kinase Hotspot)
T3 sequence (P07949 29-1114): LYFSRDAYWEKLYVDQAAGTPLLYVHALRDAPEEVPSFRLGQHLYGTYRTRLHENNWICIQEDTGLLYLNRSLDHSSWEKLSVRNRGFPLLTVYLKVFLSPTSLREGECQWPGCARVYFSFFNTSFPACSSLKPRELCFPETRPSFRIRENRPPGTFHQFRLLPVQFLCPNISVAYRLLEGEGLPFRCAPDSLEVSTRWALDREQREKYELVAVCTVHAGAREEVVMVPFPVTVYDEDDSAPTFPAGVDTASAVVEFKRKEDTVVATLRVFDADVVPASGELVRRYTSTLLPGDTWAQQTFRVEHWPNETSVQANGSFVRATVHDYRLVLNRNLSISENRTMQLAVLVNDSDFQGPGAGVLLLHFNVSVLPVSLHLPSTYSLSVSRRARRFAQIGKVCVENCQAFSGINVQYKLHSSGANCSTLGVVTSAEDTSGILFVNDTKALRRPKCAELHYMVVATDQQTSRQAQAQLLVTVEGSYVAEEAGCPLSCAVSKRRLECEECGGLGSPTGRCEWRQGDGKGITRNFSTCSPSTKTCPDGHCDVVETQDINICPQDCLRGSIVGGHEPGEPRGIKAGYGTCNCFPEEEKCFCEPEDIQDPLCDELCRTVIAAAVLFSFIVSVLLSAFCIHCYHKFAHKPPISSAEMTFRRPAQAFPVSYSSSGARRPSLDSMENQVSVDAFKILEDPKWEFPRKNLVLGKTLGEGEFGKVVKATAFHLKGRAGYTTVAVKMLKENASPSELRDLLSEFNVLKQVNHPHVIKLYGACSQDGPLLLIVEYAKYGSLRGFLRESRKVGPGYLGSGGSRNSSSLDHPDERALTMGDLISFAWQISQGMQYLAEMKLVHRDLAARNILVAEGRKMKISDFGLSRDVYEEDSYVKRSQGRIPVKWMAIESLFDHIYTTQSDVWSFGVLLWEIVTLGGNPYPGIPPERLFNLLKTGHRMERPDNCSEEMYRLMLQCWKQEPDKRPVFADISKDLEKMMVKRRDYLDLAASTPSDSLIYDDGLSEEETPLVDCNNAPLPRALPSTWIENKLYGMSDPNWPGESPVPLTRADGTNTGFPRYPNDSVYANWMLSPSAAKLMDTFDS
Experimental: as §1, §2

[4] = biological target: T4, TrkA Kinase (Homo sapiens, UniProt P04629); experiment: TrkA kinase assay (KinaseProfiler / Kinase Hotspot); conditions: compound at 1 μM
T4 construct: purchased Millipore (KinaseProfiler Service) / Reaction Biology Corp. (Kinase Hotspot)
T4 sequence (P04629 33-796): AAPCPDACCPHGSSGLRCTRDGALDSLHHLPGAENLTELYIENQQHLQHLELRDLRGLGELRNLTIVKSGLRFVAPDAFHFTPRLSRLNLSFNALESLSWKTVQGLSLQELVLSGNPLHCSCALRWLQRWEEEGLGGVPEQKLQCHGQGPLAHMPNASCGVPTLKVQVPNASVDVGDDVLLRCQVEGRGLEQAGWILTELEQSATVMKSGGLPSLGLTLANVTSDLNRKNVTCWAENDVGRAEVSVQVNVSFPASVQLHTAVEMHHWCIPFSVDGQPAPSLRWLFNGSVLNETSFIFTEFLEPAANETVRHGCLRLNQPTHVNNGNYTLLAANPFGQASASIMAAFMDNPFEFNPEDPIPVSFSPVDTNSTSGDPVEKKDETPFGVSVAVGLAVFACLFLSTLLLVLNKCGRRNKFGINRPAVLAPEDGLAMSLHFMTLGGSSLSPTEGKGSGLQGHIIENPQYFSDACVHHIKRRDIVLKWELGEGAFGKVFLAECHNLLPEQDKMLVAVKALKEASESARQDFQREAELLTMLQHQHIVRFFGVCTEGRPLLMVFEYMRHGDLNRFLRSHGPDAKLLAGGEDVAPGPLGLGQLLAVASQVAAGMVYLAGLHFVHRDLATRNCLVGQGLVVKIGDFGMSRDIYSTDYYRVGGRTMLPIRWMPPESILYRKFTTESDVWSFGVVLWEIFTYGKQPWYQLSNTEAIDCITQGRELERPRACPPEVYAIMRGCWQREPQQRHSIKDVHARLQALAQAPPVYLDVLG
Experimental: as §1, §2

[5] = biological target: T5, Aurora-A(h) (Homo sapiens, UniProt O14965); experiment: Aurora-A kinase assay (KinaseProfiler / Kinase Hotspot); conditions: compound at 1 μM; read-out: % Inhibition @1 μM Auroro-A
T5 construct: purchased Millipore (KinaseProfiler Service) / Reaction Biology Corp. (Kinase Hotspot)
T5 sequence (O14965 1-403): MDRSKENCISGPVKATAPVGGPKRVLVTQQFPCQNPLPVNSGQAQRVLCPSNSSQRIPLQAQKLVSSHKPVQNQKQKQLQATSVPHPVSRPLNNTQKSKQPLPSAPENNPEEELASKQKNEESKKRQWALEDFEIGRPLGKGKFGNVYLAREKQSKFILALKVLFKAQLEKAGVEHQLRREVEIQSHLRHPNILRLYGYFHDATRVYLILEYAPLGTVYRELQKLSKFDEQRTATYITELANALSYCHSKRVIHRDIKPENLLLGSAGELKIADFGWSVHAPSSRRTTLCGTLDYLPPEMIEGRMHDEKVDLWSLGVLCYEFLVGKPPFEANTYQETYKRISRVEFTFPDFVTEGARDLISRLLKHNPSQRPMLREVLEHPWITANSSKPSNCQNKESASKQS
Experimental: as §1, §2

Compound	inhibition at 1 µM [1]	inhibition at 1 µM [2]	inhibition at 1 µM [3]	inhibition at 1 µM [4]	inhibition at 1 µM [5]
Cc1cc(Nc2nc(C#Cc3ccccc3)nc(N3CCN(C)CC3)n2)n[nH]1 [Example 3]	< 50%	50 to 90%	50 to 90%	> 90%	50 to 90%
Cc1cc(Nc2nc(/C=C\c3ccccc3)nc(N3CCN(C)CC3)n2)n[nH]1 [Example 4]	< 50%	50 to 90%	< 50%	50 to 90%	50 to 90%
Cc1cc(Nc2nc(/C=C/c3ccccc3)nc(N3CCN(C)CC3)n2)n[nH]1 [Example 7]	50 to 90%	> 90%	50 to 90%	> 90%	> 90%
Cc1cc(Nc2nc(/C=C/c3ccc(Cl)cc3)nc(N3CCN(C)CC3)n2)n[nH]1 [Example 8]	50 to 90%	> 90%	50 to 90%	> 90%	50 to 90%
Cc1ccc(/C=C/c2nc(Nc3cc(C)[nH]n3)nc(N3CCN(C)CC3)n2)cc1 [Example 9]	< 50%	50 to 90%	50 to 90%	> 90%	50 to 90%
Cc1cc(Nc2nc(/C=C/c3ccccc3Cl)nc(N3CCN(C)CC3)n2)n[nH]1 [Example 10]	50 to 90%	> 90%	< 50%	> 90%	50 to 90%
Cc1cc(Nc2nc(/C=C/c3cccc(Cl)c3)nc(N3CCN(C)CC3)n2)n[nH]1 [Example 11]	50 to 90%	> 90%	< 50%	> 90%	50 to 90%
Cc1cc(Nc2nc(/C=C/c3nccs3)nc(N3CCN(C)CC3)n2)n[nH]1 [Example 12]	50 to 90%	> 90%	< 50%	50 to 90%	50 to 90%
Cc1cnc(Nc2nc(/C=C/c3ccccc3)nc(N3CCN(C)CC3)n2)s1 [Example 17]	50 to 90%	> 90%	< 50%	> 90%	50 to 90%
CN1CCN(c2nc(/C=C/c3ccccc3)nc(Nc3cc(-c4ccccc4)[nH]n3)n2)CC1 [Example 18]	50 to 90%	> 90%	50 to 90%	> 90%	50 to 90%
C/C=C/c1cc(Nc2nc(/C=C/c3ccccc3)nc(N3CCN(C)CC3)n2)n[nH]1 [Example 19]	> 90%	50 to 90%	50 to 90%	> 90%	50 to 90%
